Measurements taken from patent USRE46372E1, “Method for treating hearing loss” (The Regents of the University of Michigan, priority 2006, dated 2017).
Entries after “also recorded” stand apart in the source; their conditions may differ.

What was measured:
guinea pigs [1] = test: Noise-induced hearing loss in guinea pigs, ABR threshold shift; assay type: in vivo, guinea pig; conditions: for permanent hearing loss 10 days post noise (FIG. 1), protection in words: Trolox 100 mg/kg once daily or 50 mg/kg twice daily, betahistine 30 mg/kg once daily or 18 mg/kg, versus saline control; for threshold shift, as averaged across all frequencies: ABR at 4, 8, 16 kHz, 10 days after 120 dB SPL Octave Band Noise centered at 4 kHz for 5 h, saline control about 45
[2] = in words; cited from earlier work
[3] = in words; cited from earlier work; remark: listed apart in the source
guinea pigs [4] = test: Missing hair cells (hair cell counts, cytocochleograms) after noise exposure in guinea pigs; conditions: after 120 dB SPL noise for 5 h, in words
Description: After ABR testing, the guinea pigs are deeply anesthetized and decapitated. Temporal bones are quickly removed, dissected open and fixed with 4% paraformaldehyde. The following day, an otic capsule, lateral wall, and tectorial membrane are removed, and a bony modiolus is carefully detached. Organ of Corti tissue, attached to the modiolus, is permeabilized with 0.3% Triton-X and incubated with rhodamine phalloidin diluted 1:100 in phosphate buffered saline (30 min). After washing the tissues, individual turns from the organ of Corti are dissected, mounted on microscope slides, and examined and photographed using a Leica DMRB epiflourescence microscope. Hair cell counts are conducted, and cytocochleograms are prepared as known in the art.
Guinea pigs are treated with other compositions in order to compare the efficacy of the composition of the present disclosure with the other compositions. […] The guinea pigs are subjected to the same ABR testing, and the components of the ear are dissected, as described above in the Example to provide information on threshold shift and hair cell loss.
Eight groups of guinea pigs (where the number of guinea pigs ranges from 5 guinea pigs to 10 guinea pigs per group) are respectively treated with other compositions to compare the efficacy of the “ACEMg” composition of the present disclosure with the other compositions. […] The eight groups of guinea pigs are exposed to the same ABR testing, and the components of the ear are dissected as previously described in the Example to provide information on threshold shift and outer hair cell loss.

guinea pigs [5] = test: Gentamicin-induced hair cell loss in guinea pigs (quantitative sensory hair cell assessment); assay type: in vivo, guinea pig
Description: In addition, outer hair cell loss and inner hair cell loss is measured both in the whole cochlea and in a trauma region of the cochlea. After treatment according to the method of the present disclosure, outer hair cell loss in the whole cochlea is less than 10%, and inner hair cell loss in the whole cochlea is less than 5%. Outer cell hair loss in the trauma region is less than 20%, while inner hair cell loss in the trauma region is less than 10%. […] To obtain those results, the composition is orally administered to guinea pigs for 10 to 16 days prior to first administration of the antibiotic, and the composition and antibiotic are administered again each day for forty days. The guinea pigs are then euthanized and the hair cells counted. Conversely, when the antibiotic is administered for forty days without administering the composition described herein in conjunction with the antibiotic, outer hair cell loss approaches 80%, while inner hair cell loss is about 8%.
The method of treating side effects of antibiotic treatment with the composition of the present disclosure is again performed on guinea pigs (normal hearing, male, pigmented). Six guinea pigs are subject to antibiotic administration and treatment with the composition of the present disclosure. The guinea pigs were fed with a chow containing the composition including beta-carotene, vitamin C, vitamin E, and magnesium in the amounts shown in Table 3 for 10 days prior to administration of a first dosage of gentamicin antibiotic, and were fed the same chow every day for 41 days. […] Fourteen days following cessation of antibiotic treatment, the guinea pigs were euthanized, left cochleae harvested, and quantitative sensory hair cell assessments were performed. […]
Six guinea pigs are subject to antibiotic administration in the absence of treatment with the composition of the present disclosure. […] Fourteen days following cessation of antibiotic treatment, the guinea pigs were euthanized, left cochleae harvested, and quantitative sensory hair cell assessments were performed.

[6] = antibiotic administered without the composition

Compound	permanent hearing loss 10 days post noise (FIG. 1), protection in words (guinea pigs [1])	threshold shift, as averaged across all frequencies (guinea pigs [1])	sensory cell death by hair cell counts, whole cochlea and trauma region, compared to the saline control (guinea pigs [4])	further results
Cc1c(C)c2c(c(C)c1O)CCC(C)(C(=O)O)O2 (stereo not drawn)	less permanent hearing loss than control animals			
Oc1ncnc2[nH]ncc12 [allopurinol]				reducing gentamicin-induced ototoxicity [2]: ineffective; reducing noise-induced hearing loss [3]: effective
CNCCc1ccccn1 [betahistine]	approximately the same amount of protection as those treated with vitamin E; also recorded: does not exhibit an additive effect			
CN(CC(=O)O)C(=N)N [creatine]		about 34 decibels	reduced sensory cell death	
O=S(=O)([O-])[O-].[Mg+2] [magnesium, magnesium sulfate]		about 41 decibels	reduced sensory cell death	sensory cell death by hair cell counts, whole cochlea and trauma region, compared to the saline control (guinea pigs [4]; listed as Mg): significantly reduced sensory cell death
gentamicin				inner hair cell loss (guinea pigs [5]; [6]): about 8%; outer hair cell loss (guinea pigs [5]; [6]): ~80%; ototoxic effect on hair cells (guinea pigs [5]; gentamicin 140 mg/kg s.c. once a day for 16 days, no composition, in words): dramatic cell death of outer hair cells
